Data taken from paper PMC5238433 (Scientific Reports, 2017).
“Also recorded” adds a separate entry of the source.

Assays:
APJ homodimer = assay: MALDI-TOF MS of immunoprecipitated APJ complex after treatment with HIV TAT-TMD interference peptides; type: binding, human; details: peptide 4 μM, 60 min, 37 °C; for species detected by MALDI-TOF MS / effect of peptide on APJ homodimerization: cells transfected with APJ, anti-APJ immunoprecipitation, MALDI-TOF linear positive mode, mass range 4–10 kDa, sinapic acid; for binding to APJ (peptides encoding TMDs, MS): MALDI-TOF
Text: TMDs are important for the formation of head-to-head interfaces in class A GPCR dimers. To identify dimerization interfaces in the seven TMDs of APJ, the effects of cell-penetrating interference peptides (containing the sequence of the hydrophobic transmembrane helices) on APJ homodimerization were examined by MS.
Figure 5 The effects of interference peptides on apelin receptor (APJ) homodimerization as measured by matrix assisted laser desorption […] time-of-flight (MALDI-TOF) mass spectrometry.
The identity of the TMD peptide sequences was analyzed with liquid chromatography (LC)-MS.
MS was performed to identity APJ dimer interfaces in samples treated with TMD peptides. Cells were transfected with APJ and, 48 h later, treated with or without the indicated HIV TAT-TMD fused peptides (4 μM) for 60 min at 37 °C. Extracted proteins were immunoprecipitated using an anti-APJ antibody. Protein A/G PLUS-agarose beads were incubated with proteins for 2 h and washed four times with lysis buffer. The APJ complex was eluted from beads as described previously. Then, the endogenous APJ complex was analyzed with an AXIMA matrix-assisted laser desorption/ionization time-of-flight (MALDI-TOF) system (Shimazdu) in linear positive mode. The mass range was 4–10 kDa and the matrix was Sinapic Acid (SA), 10 mg/ml (50% acetonitrile (ACN), 50% H2O, 0.1% […] (TFA)). The results were calibrated with a Shimadzu MALDI calibration kit (Laser BioLabs).

[1] = system: APJ dimer (APJ-Rluc / APJ-EGFP); assay: BRET, effect of interference peptides on APJ homodimers; type: cell-based, human; details: for effect on APJ dimer BRET signals / reduction of APJ dimer BRET signals: CHO cells, APJ-Rluc:APJ-EGFP 1:3, peptide 4 μM, 37 °C, four independent experiments in triplicate; for reduction of APJ dimer BRET signals: P < 0.01, one range for TMD1, 2, 3 and 4; for disruption of APJ (homo)dimerization (statement in words): interference peptides 4 μM, in vitro, by BRET and MS
Text: Figure 7 The effect of interference peptides on apelin receptor (APJ) dimers. […] BRET[1] was detected as described above.

[2] = system: APJ homodimers (APJ-Rluc / APJ-EGFP); assay: BRET, effect of agonist/antagonist treatment on APJ homodimerization; type: cell-based, human; details: CHO cells co-expressing APJ-Rluc and APJ-EGFP (1:1); concentration not given; four independent experiments in triplicate
Method: We further assessed APJ interactions by co-immunoprecipitation (Co-IP), BRET[1], and Förster resonance energy transfer (FRET). […] BRET studies were performed to confirm APJ homodimerization.
Figure 2 Assessment of apelin receptor (APJ) dimerization using co-immunoprecipitation (Co-IP) and bioluminescence resonance energy transfer (BRET) assays. (A) Assessment of APJ homodimerization with Co-IP. Chinese hamster ovary (CHO) cells were either not transfected (mock) or transfected with HA-APJ, Myc-APJ, or both (co-transfection). HA-APJ and Myc-APJ were also mixed (mix). Immunoprecipitated samples were resolved by SDS-PAGE and immunoblotted with an anti-Myc antibody (upper panel). […] (B) Assessment of APJ homodimerization with BRET[1]. (C) BRET saturation curves. (D) Assessment of effects of agonist-treatment on dimerization by BRET[1]. For BRET, four independent experiments were performed with triplicate samples and the results were expressed as the mean ± SEM of four experiments ([…] versus control group; NS, not significant versus unstimulated cells).
(§1) To monitor constitutive APJ interactions, CHO cells were transfected with APJ-Rluc and APJ-EGFP plasmids at a ratio of 1:1, 1:2, 1:3, 1:4, 1:5, and 1:6 to express a constant amount of donor-labeled protein with increasing amounts of acceptor-labeled protein. At 24 h post-transfection, cells were trypsinized and plated on a 96 well microplate for 24 h in HEPES-buffered phenol red-free medium (Invitrogen, Life Technologies). Coelenterazine h (5 μM; Promega) was added for BRET measurements using a Tristar LB941 plate reader (Berthold) with an Rluc filter (400–475 nm) and a EGFP filter (500–550 nm). To monitor the induced interactions of APJ, BRET signals were measured as described above, with slight modifications. […] To measure the effects of interference peptides on APJ dimers, CHO cells were co-transfected with APJ-Rluc and APJ-EGFP (1:3) and incubated with interference peptides corresponding to TMD1, TMD2, TMD3, TMD4, TMD5, TMD6, and TMD7 at 37 °C (4 μM), and BRET[1] detected as described above.

APJ dimers = assay: BiFC-BRET, Gα-Rluc8, APJ-VN173 and APJ-VC155, G protein activation by APJ dimers; type: cell-based, human
Text: To explore the novel signaling of APJ dimers, we examined the signaling of APJ dimers using BiFC-BRET. […] Cells expressing Gα-Rluc8 and APJ-Venus served as a positive control, and two negative controls (Gα-Rluc8 and APJ-VN173, Gα-Rluc8 and APJ-VC155A) were also introduced. […] (Fig. S5). […] In addition, we have measured the expression levels of donor[23] and acceptor before experiment (Fig. 10).
Kinetics of ligand-induced BRET between Gα-Rluc8 (8 subtypes), APJ-VN173, and APJ-VC155. […] (A) Gαi1-Rluc8, APJ-VN173, and APJ-VC155; (B) Gαi2-Rluc8, APJ-VN173, and APJ-VC155; (C) Gαi3-Rluc8, APJ-VN173, and APJ-VC155; (D) Gαq-Rluc8, APJ-VN173, and APJ-VC155; (E) Gαs-Rluc8, APJ-VN173, and APJ-VC155; (F) Gαo-Rluc8, APJ-VN173, and APJ-VC155; (G) Gα12-Rluc8, APJ-VN173, and APJ-VC155; H. Gα13-Rluc8, APJ-VN173, and APJ-VC155.
APJ-VN173 and APJ-VC155 were generated by fusing either the N-terminal fragment of Venus (Venus N: amino acids 1–172) or the C-terminal fragment of Venus (Venus C: amino acids 156–239) to the C-terminus of the wild-type (wt) full-length apelin receptor. Gαi1-Rluc8, Gαi2-Rluc8, Gαi3-Rluc8, Gαq-Rluc8, Gαoa-Rluc8, and Gαs-Rluc8, pET-21a(+)-GFP, FLAG-BirA-APJ, and HA-AP-APJ were constructed as described previously.
as §1

[3] = system: APJ oligomers (APJ-Rluc, APJ-VN173, APJ-VC155); assay: BiFC-BRET, effect of agonist/antagonist treatment on APJ oligomerization; type: cell-based, human; details: CHO cells co-expressing APJ-Rluc, concentration not given, four independent experiments in triplicate
Method: Additionally, BiFC-BRET assays were performed to detect APJ oligomerization in living cells. Two non-fluorescent fragments (pCE-BiFC-VN173 and pCE-BiFC-VC155) of Venus fluorescent protein were separately fused to APJ (APJ-VN173 and APJ-VC155) (Fig. 4A). CHO cells were then co-transfected with APJ-Rluc, APJ-VN173, and APJ-VC155 and observed with TIRFM.
Figure 4 Assessment of apelin receptor (APJ) oligomerization with bioluminescence resonance energy transfer - bimolecular fluorescence complementation (BiFC-BRET). (A) Principle of BiFC-BRET. The assay examines the formation of functional Venus by the complementation of protein fragments fused to APJ. Association of APJ enables formation of a bimolecular fluorescent complex. If all three tagged APJ proteins interact, BRET can occur. (B) TIRFM detection of APJ dimers (yellow particles) after BiFC. (C) Assessment of APJ oligomerization with BiFC-BRET. (D) Assessment of agonist-induced oligomerization.

[4] = APJ dimers (APJ-VN173 + APJ-VC155), CHO cells, 1 μM apelin-13, 30 min

Row | Substance | species detected by MALDI-TOF MS / effect of peptide on APJ homodimerization (APJ homodimer) | binding to APJ (peptides encoding TMDs, MS) (APJ homodimer) | effect on APJ dimer BRET signals [1] | reduction of APJ dimer BRET signals [1] | disruption of APJ (homo)dimerization (statement in words) [1] | BRET signal versus unstimulated cells (APJ homodimer formation) [2] | other results
1 | IFVNMYASVFCLTGLSFDRYLAIYGRKKRRQRRR [TMD3, HIV TAT-fused interference peptide derived from human APJ transmembrane domain 3] | TMD3, TMD3 dimers, TMD3 tetramers, APJ, [APJ + TMD3], APJ dimers, and [APJ + TMD3] dimers were detected | can bind to APJ | significantly reduced APJ dimer BRET signals | 55–75% | disrupted APJ dimerization; also recorded: can effectively disrupt the formation of APJ homodimers; also recorded: disrupted APJ homodimerization in vitro | – | –
2 | LMNIFPYCTCISYVNSCLNPFLYYGRKKRRQRRR [TMD7, HIV TAT-fused interference peptide derived from human APJ transmembrane domain 7] | lacked the effect demonstrated by TMD1, 2, 3, and 4; also recorded: TMD7, APJ, and APJ dimers were detected | – | no significant effect | – | but not TMD5, 6, and 7, disrupted APJ dimerization | – | –
3 | VSSTTVGFVVPFTIMLTCYFFIAYGRKKRRQRRR [TMD5, HIV TAT-fused interference peptide derived from human APJ transmembrane domain 5] | lacked the effect demonstrated by TMD1, 2, 3, and 4; also recorded: TMD5, APJ, and APJ dimers were detected | – | no significant effect | – | but not TMD5, 6, and 7, disrupted APJ dimerization | – | –
4 | YGRKKRRQRRRFIASLAVADLTFVVTLPLWATYT [TMD2, HIV TAT-fused interference peptide derived from human APJ transmembrane domain 2] | TMD2, TMD2 dimers, TMD2 tetramers, APJ, [APJ + TMD2], APJ dimers, and [APJ + TMD2] dimers were detected | can bind to APJ | significantly reduced APJ dimer BRET signals | 55–75% | disrupted APJ dimerization; also recorded: can effectively disrupt the formation of APJ homodimers; also recorded: disrupted APJ homodimerization in vitro | – | –
5 | YGRKKRRQRRRRLLSIIVVLVVTFALCWMPYHLV [TMD6, HIV TAT-fused interference peptide derived from human APJ transmembrane domain 6] | lacked the effect demonstrated by TMD1, 2, 3, and 4; also recorded: TMD6, APJ, and APJ dimers were detected | – | no significant effect | – | but not TMD5, 6, and 7, disrupted APJ dimerization | – | –
6 | YGRKKRRQRRRVSGAVATAVLWVLAALLAMPVMV [TMD4, HIV TAT-fused interference peptide derived from human APJ transmembrane domain 4] | TMD4, TMD4 dimers, TMD4 tetramers, APJ, [APJ + TMD4], APJ dimers, and [APJ + TMD4] dimers were detected | can bind to APJ | significantly reduced APJ dimer BRET signals | 55–75% | disrupted APJ dimerization; also recorded: can effectively disrupt the formation of APJ homodimers; also recorded: disrupted APJ homodimerization in vitro | – | –
7 | [Ala13]apelin-13 | – | – | – | – | – | not significantly different to those of unstimulated cells | –
8 | apelin-13 | – | – | – | – | – | not significantly different to those of unstimulated cells | G protein activation, Gα12 (APJ dimers; [4]): not Gαi1, Gαi2, Gαs, Gα12, Gα13, and Gαo; G protein activation, Gα13 (APJ dimers; [4]): not Gαi1, Gαi2, Gαs, Gα12, Gα13, and Gαo; G protein activation, Gαi1 (APJ dimers; [4]): not Gαi1, Gαi2, Gαs, Gα12, Gα13, and Gαo; G protein activation, Gαi2 (APJ dimers; [4]): not Gαi1, Gαi2, Gαs, Gα12, Gα13, and Gαo; G protein activation, Gαi3 (APJ dimers; [4]): activate only Gαi3 and Gαq; G protein activation, Gαo (APJ dimers; [4]): not Gαi1, Gαi2, Gαs, Gα12, Gα13, and Gαo; G protein activation, Gαq (APJ dimers; [4]): activate only Gαi3 and Gαq; G protein activation, Gαs (APJ dimers; [4]): not Gαi1, Gαi2, Gαs, Gα12, Gα13, and Gαo; ligand-induced BRET change, cells expressing APJ tagged with VN173 and VC155 (APJ dimers; Gα-Rluc8 (8 subtypes), CHO cells, 1 μM apelin-13): an increase in BRET was observed only for Gαi3 and Gαq; ligand-induced BRET change, negative controls (APJ dimers; Gα-Rluc8 with APJ-VN173 only or APJ-VC155 only, 1 μM apelin-13): No changes in BRET were observed
9 | apelin-17 | – | – | – | – | – | not significantly different to those of unstimulated cells | BRET ratio versus unstimulated cells (APJ oligomerization, BiFC-BRET) [3]: the same as that of unstimulated cells
